In publication PMC12136037, “Type II kinase inhibitors that target Parkinson’s disease–associated LRRK2” (Science Advances, 2025):

Experiments:
Assay in all cases: DSF 100 kinase selectivity screen;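 also: compound tested at 20 µM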
Format in all cases: binding
[1] = biological target: T1, ~100 representative kinases (Homo sapiens, UniProt P78368); conditions: Protein CSNK1G2; average of three replicates
T1 construct: Recombinant protein kinase domains with a concentration of 2 μM
How it was run: (§1)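 Each kinase domain, at 2 μM, is mixed with 20 μM test compound and SYPRO Orange in Hepes (20 mM, pH 7.5) with 500 mM NaCl. Temperature is then raised at 3°C/min and fluorescence-monitored unfolding yields the melting temperature change, ΔTm in degrees Celsius.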

[2] = biological target: T2, ~100 representative kinases (Homo sapiens, UniProt O15164); conditions: Protein TIF1; DSF; average of three replicates
T2 construct: Recombinant protein kinase domains with a concentration of 2 μM
T2 sequence (O15164 1-1050): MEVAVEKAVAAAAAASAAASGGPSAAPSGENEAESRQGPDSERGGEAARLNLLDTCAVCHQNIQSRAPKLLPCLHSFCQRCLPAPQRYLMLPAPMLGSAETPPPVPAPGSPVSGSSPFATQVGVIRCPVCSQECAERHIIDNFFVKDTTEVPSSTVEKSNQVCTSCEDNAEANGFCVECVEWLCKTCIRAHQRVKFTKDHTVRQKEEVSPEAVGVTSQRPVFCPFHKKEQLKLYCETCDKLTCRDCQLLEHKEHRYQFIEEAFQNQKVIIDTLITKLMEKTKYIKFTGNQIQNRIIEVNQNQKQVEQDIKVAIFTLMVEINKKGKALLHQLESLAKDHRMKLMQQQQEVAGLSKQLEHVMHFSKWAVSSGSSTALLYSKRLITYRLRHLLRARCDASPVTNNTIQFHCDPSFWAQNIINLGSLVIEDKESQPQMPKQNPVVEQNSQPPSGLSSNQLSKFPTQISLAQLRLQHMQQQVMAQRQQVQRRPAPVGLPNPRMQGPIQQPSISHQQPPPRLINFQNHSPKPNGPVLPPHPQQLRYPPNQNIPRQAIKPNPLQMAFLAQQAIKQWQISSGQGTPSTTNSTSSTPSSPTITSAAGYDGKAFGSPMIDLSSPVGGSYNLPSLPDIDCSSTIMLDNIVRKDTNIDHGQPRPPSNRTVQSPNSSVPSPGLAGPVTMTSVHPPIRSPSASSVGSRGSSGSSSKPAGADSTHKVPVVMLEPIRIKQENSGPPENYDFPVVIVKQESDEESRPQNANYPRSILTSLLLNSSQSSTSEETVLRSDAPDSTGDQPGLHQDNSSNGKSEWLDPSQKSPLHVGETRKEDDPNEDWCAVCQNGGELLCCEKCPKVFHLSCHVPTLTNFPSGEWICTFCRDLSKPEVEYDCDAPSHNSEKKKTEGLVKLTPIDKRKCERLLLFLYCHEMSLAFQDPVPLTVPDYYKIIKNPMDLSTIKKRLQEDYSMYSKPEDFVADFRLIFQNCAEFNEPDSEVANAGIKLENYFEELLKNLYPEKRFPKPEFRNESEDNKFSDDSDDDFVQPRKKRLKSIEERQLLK
How it was run: as §1

[3] = biological target: T3, ~100 representative kinases (Homo sapiens, UniProt O75385); conditions: Protein ULK1; DSF; average of three replicates
T3 construct: Recombinant protein kinase domains with a concentration of 2 μM
T3 sequence (O75385 1-1050): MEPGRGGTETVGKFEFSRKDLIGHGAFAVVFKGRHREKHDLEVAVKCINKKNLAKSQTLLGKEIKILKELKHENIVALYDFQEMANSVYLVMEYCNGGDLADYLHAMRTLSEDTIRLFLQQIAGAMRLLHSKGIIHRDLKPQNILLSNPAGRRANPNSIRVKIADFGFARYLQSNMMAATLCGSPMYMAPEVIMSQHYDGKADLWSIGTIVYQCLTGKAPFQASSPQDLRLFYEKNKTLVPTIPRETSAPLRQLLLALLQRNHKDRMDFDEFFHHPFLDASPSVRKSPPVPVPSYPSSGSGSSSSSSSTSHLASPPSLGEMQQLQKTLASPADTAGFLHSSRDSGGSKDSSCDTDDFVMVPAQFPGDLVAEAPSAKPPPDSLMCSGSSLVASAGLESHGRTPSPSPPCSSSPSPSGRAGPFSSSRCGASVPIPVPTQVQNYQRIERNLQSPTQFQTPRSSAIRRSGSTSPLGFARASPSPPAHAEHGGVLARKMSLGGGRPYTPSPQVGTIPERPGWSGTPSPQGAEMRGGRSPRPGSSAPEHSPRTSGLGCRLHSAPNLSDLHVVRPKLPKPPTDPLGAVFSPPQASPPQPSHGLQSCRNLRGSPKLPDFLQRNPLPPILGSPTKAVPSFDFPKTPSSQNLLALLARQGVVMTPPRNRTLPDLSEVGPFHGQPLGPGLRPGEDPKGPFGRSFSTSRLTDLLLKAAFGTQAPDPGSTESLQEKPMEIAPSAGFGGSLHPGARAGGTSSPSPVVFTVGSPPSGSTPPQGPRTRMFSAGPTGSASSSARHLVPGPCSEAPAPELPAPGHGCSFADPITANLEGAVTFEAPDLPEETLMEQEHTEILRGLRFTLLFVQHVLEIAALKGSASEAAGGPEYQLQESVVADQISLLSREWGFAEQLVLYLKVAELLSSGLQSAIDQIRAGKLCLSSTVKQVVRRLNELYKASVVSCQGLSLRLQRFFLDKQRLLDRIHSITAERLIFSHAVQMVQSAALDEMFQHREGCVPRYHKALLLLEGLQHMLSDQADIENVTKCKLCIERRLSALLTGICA
How it was run: as §1

[4] = biological target: T4, ~100 representative kinases (Homo sapiens, UniProt Q02750); conditions: protein MAP2K1; average of three replicates
T4 construct: Recombinant protein kinase domains with a concentration of 2 μM
T4 sequence (Q02750 whole entry, the tested form may be a part): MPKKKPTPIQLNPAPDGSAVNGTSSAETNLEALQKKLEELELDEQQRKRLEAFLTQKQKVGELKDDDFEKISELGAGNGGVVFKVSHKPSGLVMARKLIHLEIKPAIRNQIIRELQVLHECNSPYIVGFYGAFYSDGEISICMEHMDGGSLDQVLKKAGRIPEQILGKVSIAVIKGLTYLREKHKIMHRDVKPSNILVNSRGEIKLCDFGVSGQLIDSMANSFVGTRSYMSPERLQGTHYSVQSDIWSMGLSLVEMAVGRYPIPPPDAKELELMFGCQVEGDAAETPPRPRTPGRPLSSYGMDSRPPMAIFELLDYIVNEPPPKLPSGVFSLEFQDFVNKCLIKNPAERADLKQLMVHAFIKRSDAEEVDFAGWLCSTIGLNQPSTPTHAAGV
How it was run: as §1

[5] = biological target: T5, ~100 representative kinases (Homo sapiens, UniProt P22607); conditions: protein FGFR3; average of three replicates
T5 construct: Recombinant protein kinase domains with a concentration of 2 μM
T5 sequence (P22607 23-806): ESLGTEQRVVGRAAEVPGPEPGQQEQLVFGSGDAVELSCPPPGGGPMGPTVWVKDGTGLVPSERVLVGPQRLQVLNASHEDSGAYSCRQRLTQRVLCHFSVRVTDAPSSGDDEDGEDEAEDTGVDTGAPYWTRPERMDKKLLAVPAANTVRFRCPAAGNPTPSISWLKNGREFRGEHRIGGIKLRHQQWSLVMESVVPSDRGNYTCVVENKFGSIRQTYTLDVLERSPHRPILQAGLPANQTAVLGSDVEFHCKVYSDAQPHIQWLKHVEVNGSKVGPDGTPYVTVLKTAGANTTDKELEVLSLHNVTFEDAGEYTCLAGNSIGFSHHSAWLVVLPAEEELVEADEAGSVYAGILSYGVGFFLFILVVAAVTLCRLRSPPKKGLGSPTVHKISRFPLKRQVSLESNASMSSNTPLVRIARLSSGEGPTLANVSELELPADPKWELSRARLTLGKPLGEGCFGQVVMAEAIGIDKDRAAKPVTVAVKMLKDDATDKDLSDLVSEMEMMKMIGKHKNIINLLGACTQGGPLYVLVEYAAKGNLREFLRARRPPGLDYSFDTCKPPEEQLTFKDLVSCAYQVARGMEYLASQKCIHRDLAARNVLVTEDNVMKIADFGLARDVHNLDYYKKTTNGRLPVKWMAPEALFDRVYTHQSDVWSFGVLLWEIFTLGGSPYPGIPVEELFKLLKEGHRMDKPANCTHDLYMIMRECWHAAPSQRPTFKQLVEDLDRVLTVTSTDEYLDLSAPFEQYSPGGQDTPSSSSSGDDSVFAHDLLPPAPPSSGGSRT
How it was run: as §1

T1 sequence (P78368 whole entry, the tested form may be a part): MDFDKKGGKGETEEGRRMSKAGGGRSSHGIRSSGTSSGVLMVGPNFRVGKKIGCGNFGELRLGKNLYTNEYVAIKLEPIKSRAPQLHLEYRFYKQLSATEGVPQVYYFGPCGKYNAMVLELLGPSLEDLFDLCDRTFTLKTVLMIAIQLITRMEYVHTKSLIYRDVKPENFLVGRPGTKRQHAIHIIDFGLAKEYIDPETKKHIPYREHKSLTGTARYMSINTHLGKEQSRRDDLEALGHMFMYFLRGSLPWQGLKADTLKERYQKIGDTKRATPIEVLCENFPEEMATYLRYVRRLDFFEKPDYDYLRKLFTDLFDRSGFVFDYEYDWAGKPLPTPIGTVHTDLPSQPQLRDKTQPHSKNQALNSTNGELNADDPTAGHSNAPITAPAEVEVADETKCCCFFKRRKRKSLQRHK

dTm [1] | dTm [2] | dTm [3] | dTm [4] | dTm [5] | Compound
0.54 K | – | – | – | – | O=C(Nc1cccc(-c2c[nH]c3ncnc(N4CCOCC4)c23)c1)C1(C(=O)Nc2ccc(F)cc2F)CC1 [Compound 23]
0.39 K | – | – | – | – | Cc1cc(NC(=O)C2(C(=O)Nc3cccc(-c4c[nH]c5ncnc(N6CCOCC6)c45)c3)CC2)ccc1F [Compound 20]
– | 0.90 K | 2.80 K | 0.59 K | – | CC(=O)N1CCN(c2nc(Cl)nc3[nH]cc(-c4cccc(NC(=O)Nc5cc(C(C)(C)C)nn5-c5ccc(C)cc5)c4)c23)CC1 [Compound 31]
– | 2.83 K | 5.26 K | 1.10 K | 1.74 K | Cc1cc(NC(=O)C2(C(=O)Nc3ccc(F)cc3)CC2)cc(-c2c[nH]c3ncnc(N4CCOCC4)c23)c1 [Compound 6]
0.39 K | – | – | – | – | O=C(Nc1ccccc1)C1(C(=O)Nc2cccc(-c3c[nH]c4ncnc(N5CCOCC5)c34)c2)CC1 [Compound 12]
– | 3.26 K | 12.52 K | 2.40 K | 4.74 K | O=C(Nc1cccc(-c2c[nH]c3ncnc(N4CCOCC4)c23)c1)C1(C(=O)Nc2ccc(F)c(Br)c2)CC1 [Compound 19]
– | 1.73 K | 2.91 K | 0.49 K | – | Cc1ccc(-n2nc(C(C)(C)C)cc2NC(=O)Nc2cccc(-c3c[nH]c4nc(Cl)nc(N5CCOCC5)c34)c2)cc1 [Compound 30]
0.05 K | – | – | – | – | CC(C)(C)c1cc(NC(=O)Nc2cccc(-c3c[nH]c4ncnc(N5CCOCC5)c34)c2)n(-c2ccc3ncccc3c2)n1 [Compound 28]
– | -0.22 K | 1.06 K | 0.0455 K | 1.40 K | CCNc1nc(Nc2cc(F)c(C(=O)N3CCOCC3)cc2OC)ncc1C(F)(F)F [GNE-7915]
– | 3.41 K | 6.92 K | 2.12 K | 2.85 K | O=C(Nc1cccc(-c2c[nH]c3ncnc(N4CCOCC4)c23)c1)C1(C(=O)Nc2cccc3c2CCC3)CC1 [Compound 11]
0.27 K | – | – | – | – | O=C(Nc1cccc(-c2c[nH]c3ncnc(N4CCOCC4)c23)c1)C1(C(=O)Nc2ccc(F)c(Cl)c2)CC1 [Compound 18]
0.81 K | – | – | – | – | Cc1ccc(NC(=O)C2(C(=O)Nc3cccc(-c4c[nH]c5ncnc(N6CCOCC6)c45)c3)CC2)cc1 [Compound 14]
0.51 K | – | – | – | – | O=C(Nc1ccc(Cl)cc1)C1(C(=O)Nc2cccc(-c3c[nH]c4ncnc(N5CCOCC5)c34)c2)CC1 [Compound 13]
– | -2.24 K | -0.79 K | -0.30 K | – | COc1cc(C(=O)N2CCOCC2)c(F)cc1Nc1nc(N(C)C)c2c(Cl)c[nH]c2n1 [Compound 36]
0.45 K | – | – | – | – | O=C(Nc1ccc(F)cc1)C1(C(=O)Nc2cccc(-c3c[nH]c4ncnc(N5CCOCC5)c34)c2)CC1 [Compound 2]
0.71 K | – | – | – | – | COc1ccc(NC(=O)C2(C(=O)Nc3cccc(-c4c[nH]c5ncnc(N6CCOCC6)c45)c3)CC2)cc1 [Compound 16]
0.62 K | – | – | – | – | Cc1cc(F)ccc1NC(=O)C1(C(=O)Nc2cccc(-c3c[nH]c4ncnc(N5CCOCC5)c34)c2)CC1 [Compound 24]
– | -0.80 K | -0.88 K | -0.22 K | – | COc1cc(S(C)(=O)=O)ccc1Nc1nc(N(C)C)c2c(Cl)c[nH]c2n1 [Compound 37]
– | 2.87 K | 8.48 K | 2.67 K | 3.36 K | O=C(Nc1cccc(-c2c[nH]c3ncnc(N4CCOCC4)c23)c1)C1(C(=O)Nc2ccc(F)c(Br)c2F)CC1 [Compound 26]
0.60 K | – | – | – | – | CCc1ccc(NC(=O)C2(C(=O)Nc3cccc(-c4c[nH]c5ncnc(N6CCOCC6)c45)c3)CC2)cc1 [Compound 15]
– | 0.97 K | 10.70 K | 2.87 K | – | Cc1ccc(-n2nc(C(C)(C)C)cc2NC(=O)Nc2cccc(-c3c[nH]c4ncnc(N5CCOCC5)c34)c2)cc1 [Compound 29]
0.36 K | – | – | – | – | O=C(Nc1cccc(-c2c[nH]c3ncnc(N4CCOCC4)c23)c1)C1(C(=O)Nc2ccc(F)c(F)c2)CC1 [Compound 17]
0.57 K | – | – | – | – | COc1cc(NC(=O)C2(C(=O)Nc3cccc(-c4c[nH]c5ncnc(N6CCOCC6)c45)c3)CC2)ccc1F [Compound 21]
– | 0.45 K | 6.89 K | – | 4.20 K | Cc1ccc(C(=O)Nc2ccc(CN3CCN(C)CC3)c(C(F)(F)F)c2)cc1C#Cc1c[nH]c2ncnc(N3CCOCC3)c12 [Compound 1]
0.40 K | – | – | – | – | O=C(Nc1cccc(-c2c[nH]c3ncnc(N4CCOCC4)c23)c1)c1cccn(-c2ccc(F)cc2)c1=O [Compound 4]

Compound | dTm [1] | dTm [2] | dTm [3] | dTm [4] | dTm [5]
Cc1ccc(C(=O)Nc2ccc(CN3CCN(C)CC3)c(C(F)(F)F)c2)cc1C#Cc1cnc2cccnn12 [Ponatinib, reference compound] | – | 0.0214 K | – | – | 14.03 K
Cn1cc(-c2c[nH]c3ncnc(N4CCOCC4)c23)cc1C#N [PFE-360] | – | 0.08 K | 1.48 K | 0.65 K | 2.13 K
COc1cc2c(Oc3ccc(NC(=O)C4(C(=O)Nc5ccc(F)cc5)CC4)cc3F)ccnc2cc1OCCCN1CCOCC1 [Foretinib, reference compound] | 0.37 K | – | – | – | –
Cc1ccc(C(=O)Nc2ccc(CN3CCN(C)CC3)c(C(F)(F)F)c2)cc1C#Cc1cnc2[nH]ncc2c1 [GZD-824, reference compound] | – | 0.34 K | 6.60 K | 0.63 K | 14.11 K
CN[C@@H]1C[C@H]2O[C@@](C)([C@@H]1OC)n1c3ccccc3c3c4c(c5c6ccccc6n2c5c31)C(=O)NC4 [Staurosporine] | – | – | 14.02 K | – | –
C[C@@H]1CN(c2cc(-c3n[nH]c4ccc(OC5(C)CC5)cc34)ncn2)C[C@H](C)O1 [MLi2] | – | 0.28 K | 0.01 K | -0.0332 K | 0.31 K
CNC(=O)c1cc(Oc2ccc(NC(=O)Nc3cc(C(C)(C)C)nn3-c3ccc4ncccc4c3)c(F)c2)ccn1 [Rebastinib, reference compound] | – | 0.87 K | 5.73 K | 0.92 K | –
CCSc1nc(NC)c2c(-c3cccc(NC(=O)Nc4cc(C(C)(C)C)nn4-c4ccc(C)cc4)c3)c[nH]c2n1 [Compound 32] | – | 0.82 K | 0.62 K | 0.11 K | –
